Organism: Rattus norvegicus
Assay: Open TG-GATES - Regimen: Daily Repeat
Format: toxicity, organism-based, Sprague-Dawley
Design: regimen Daily Repeat, gender Male, age 6 weeks
Settings: in vivo, po, 120 mg/kg, route gavage, dose level Middle; for APTT / Bas / Eos / Fbg / Hb / Ht / Lym / MCH / MCHC / MCV / Mono / Neu / PT / Plat / RBC / Ret / WBC: tissue Blood; for KIDNEY_L / KIDNEY_R / KIDNEY_TOTAL: tissue Kidney; for LIVER: tissue Liver; for A/G / ALP / ALT / AST / BUN / CRE / Ca / Cl / DBIL / GLC / IP / K / LDH / Na / PL / RALB / TBIL / TC / TG / TP / gamma-GTP: tissue Plasma

Cc1cccc(C)c1OCC(C)N (configuration not stated) [MEXILETINE]
TERMINAL_BW (72 h, time 3 day): 236.3 g | APTT (72 h, time 3 day): 21.8 s | Bas (72 h, time 3 day): 0% | Eos (72 h, time 3 day): 0.8% | Fbg (72 h, time 3 day): 325.2 mg/dL | Hb (72 h, time 3 day): 12.9 g/dL | Ht (72 h, time 3 day): 40.1% | Lym (72 h, time 3 day): 74% | MCH (72 h, time 3 day): 19.7 pg | MCHC (72 h, time 3 day): 32.3% | MCV (72 h, time 3 day): 61.1 fL | Mono (72 h, time 3 day): 2.6% | Neu (72 h, time 3 day): 21.6% | PT (72 h, time 3 day): 15.3 s | Plat (72 h, time 3 day): 115.5 x10_4/uL | RBC (72 h, time 3 day): 656.6 x10_4/ul | Ret (72 h, time 3 day): 6.1% | WBC (72 h, time 3 day): 96.8 x10_2/uL | KIDNEY_L (72 h, time 3 day): 1 g | KIDNEY_R (72 h, time 3 day): 1 g | KIDNEY_TOTAL (72 h, time 3 day): 2 g | LIVER (72 h, time 3 day): 11.5 g | A/G (72 h, time 3 day): 1.3 | ALP (72 h, time 3 day): 1686.2 IU/L | ALT (72 h, time 3 day): 48.6 IU/L | AST (72 h, time 3 day): 73.4 IU/L | BUN (72 h, time 3 day): 16.6 mg/dL | CRE (72 h, time 3 day): 0.1 mg/dL | Ca (72 h, time 3 day): 10.8 mg/dL | Cl (72 h, time 3 day): 106.2 meq/L | DBIL (72 h, time 3 day): 0 mg/dL | GLC (72 h, time 3 day): 197 mg/dL | IP (72 h, time 3 day): 8 mg/dL | K (72 h, time 3 day): 4.3 meq/L | LDH (72 h, time 3 day): 181.2 IU/L | Na (72 h, time 3 day): 141.6 meq/L | PL (72 h, time 3 day): 168 mg/dL | RALB (72 h, time 3 day): 3.2 g/dL | TBIL (72 h, time 3 day): 0.002 mg/dL | TC (72 h, time 3 day): 91.2 mg/dL | TG (72 h, time 3 day): 150.2 mg/dL | TP (72 h, time 3 day): 5.7 g/dL | gamma-GTP (72 h, time 3 day): 1.8 IU/L | TERMINAL_BW ([…], time 7 day): 275.9 g | TERMINAL_BW ([…], time 14 day): 328.1 g | TERMINAL_BW ([…], time 28 day): 389.9 g | APTT ([…], time 7 day): 22.2 s | Bas ([…], time 7 day): 0% | Eos ([…], time 7 day): 0.8% | Fbg ([…], time 7 day): 321.2 mg/dL | Hb ([…], time 7 day): 13.1 g/dL | Ht ([…], time 7 day): 40.4% | Lym ([…], time 7 day): 77.8% | MCH ([…], time 7 day): 20.5 pg | MCHC ([…], time 7 day): 32.4% | MCV ([…], time 7 day): 63.3 fL | Mono ([…], time 7 day): 2.4% | Neu ([…], time 7 day): 18.4% | PT ([…], time 7 day): 15.6 s | Plat ([…], time 7 day): 105.3 x10_4/uL | RBC ([…], time 7 day): 638 x10_4/ul | Ret ([…], time 7 day): 6.2% | WBC ([…], time 7 day): 107.1 x10_2/uL | APTT ([…], time 14 day): 21.8 s | Bas ([…], time 14 day): 0% | Eos ([…], time 14 day): 0.4% | Fbg ([…], time 14 day): 310.2 mg/dL | Hb ([…], time 14 day): 13.1 g/dL | Ht ([…], time 14 day): 40.6% | Lym ([…], time 14 day): 83.2% | MCH ([…], time 14 day): 20.1 pg | MCHC ([…], time 14 day): 32.2% | MCV ([…], time 14 day): 62.6 fL | Mono ([…], time 14 day): 2% | Neu ([…], time 14 day): 13.6% | PT ([…], time 14 day): 15.9 s | Plat ([…], time 14 day): 113.4 x10_4/uL | RBC ([…], time 14 day): 648.8 x10_4/ul | Ret ([…], time 14 day): 7.3% | WBC ([…], time 14 day): 96 x10_2/uL | APTT ([…], time 28 day): 23.8 s | Bas ([…], time 28 day): 0% | Eos ([…], time 28 day): 1.8% | Fbg ([…], time 28 day): 328.2 mg/dL | Hb ([…], time 28 day): 15.1 g/dL | Ht ([…], time 28 day): 44% | Lym ([…], time 28 day): 74% | MCH ([…], time 28 day): 19.4 pg | MCHC ([…], time 28 day): 34.4% | MCV ([…], time 28 day): 56.6 fL | Mono ([…], time 28 day): 2.4% | Neu ([…], time 28 day): 21.2% | PT ([…], time 28 day): 15.6 s | Plat ([…], time 28 day): 94.2 x10_4/uL | RBC ([…], time 28 day): 777 x10_4/ul | Ret ([…], time 28 day): 3.1% | WBC ([…], time 28 day): 93 x10_2/uL | KIDNEY_L ([…], time 7 day): 1.1 g | KIDNEY_R ([…], time 7 day): 1.1 g | KIDNEY_TOTAL ([…], time 7 day): 2.2 g | KIDNEY_L ([…], time 14 day): 1.3 g | KIDNEY_R ([…], time 14 day): 1.3 g | KIDNEY_TOTAL ([…], time 14 day): 2.6 g | KIDNEY_L ([…], time 28 day): 1.5 g | KIDNEY_R ([…], time 28 day): 1.5 g | KIDNEY_TOTAL ([…], time 28 day): 2.9 g | LIVER ([…], time 7 day): 13.2 g | LIVER ([…], time 14 day): 14.8 g | LIVER ([…], time 28 day): 16.8 g | A/G ([…], time 7 day): 1.2 | ALP ([…], time 7 day): 1567.6 IU/L | ALT ([…], time 7 day): 45 IU/L | AST ([…], time 7 day): 69.8 IU/L | BUN ([…], time 7 day): 18.4 mg/dL | CRE ([…], time 7 day): 0.1 mg/dL | Ca ([…], time 7 day): 11 mg/dL | Cl ([…], time 7 day): 104.8 meq/L | DBIL ([…], time 7 day): 0 mg/dL | GLC ([…], time 7 day): 188.6 mg/dL | IP ([…], time 7 day): 7.8 mg/dL | K ([…], time 7 day): 4.2 meq/L | LDH ([…], time 7 day): 145.6 IU/L | Na ([…], time 7 day): 142 meq/L | PL ([…], time 7 day): 163.2 mg/dL | RALB ([…], time 7 day): 3 g/dL | TBIL ([…], time 7 day): 0.004 mg/dL | TC ([…], time 7 day): 81.2 mg/dL | TG ([…], time 7 day): 148 mg/dL | TP ([…], time 7 day): 5.6 g/dL | gamma-GTP ([…], time 7 day): 1.6 IU/L | A/G ([…], time 14 day): 1.1 | ALP ([…], time 14 day): 1443.2 IU/L | ALT ([…], time 14 day): 43.2 IU/L | AST ([…], time 14 day): 74.6 IU/L | BUN ([…], time 14 day): 19.4 mg/dL | CRE ([…], time 14 day): 0.2 mg/dL | Ca ([…], time 14 day): 10.5 mg/dL | Cl ([…], time 14 day): 107.2 meq/L | DBIL ([…], time 14 day): 0 mg/dL | GLC ([…], time 14 day): 190.6 mg/dL | IP ([…], time 14 day): 6.5 mg/dL | K ([…], time 14 day): 4.4 meq/L | LDH ([…], time 14 day): 157.8 IU/L | Na ([…], time 14 day): 140.6 meq/L | PL ([…], time 14 day): 160 mg/dL | RALB ([…], time 14 day): 2.9 g/dL | TBIL ([…], time 14 day): 0.002 mg/dL | TC ([…], time 14 day): 80.8 mg/dL | TG ([…], time 14 day): 155.6 mg/dL | TP ([…], time 14 day): 5.7 g/dL | gamma-GTP ([…], time 14 day): 2.2 IU/L | A/G ([…], time 28 day): 1 | ALP ([…], time 28 day): 977 IU/L | ALT ([…], time 28 day): 42.4 IU/L | AST ([…], time 28 day): 68.8 IU/L | BUN ([…], time 28 day): 16.2 mg/dL | CRE ([…], time 28 day): 0.2 mg/dL | Ca ([…], time 28 day): 10.4 mg/dL | Cl ([…], time 28 day): 105.6 meq/L | DBIL ([…], time 28 day): 0 mg/dL | GLC ([…], time 28 day): 201.6 mg/dL | IP ([…], time 28 day): 6 mg/dL | K ([…], time 28 day): 3.7 meq/L | LDH ([…], time 28 day): 158.2 IU/L | Na ([…], time 28 day): 142.8 meq/L | PL ([…], time 28 day): 157.8 mg/dL | RALB ([…], time 28 day): 3.1 g/dL | TBIL ([…], time 28 day): 0.012 mg/dL | TC ([…], time 28 day): 80.2 mg/dL | TG ([…], time 28 day): 145.2 mg/dL | TP ([…], time 28 day): 6.1 g/dL | gamma-GTP ([…], time 28 day): 2 IU/L

Source: ChEMBL document CHEMBL3885861, “Open TG-GATES”
